Results on one compound are retold here after patent US9686993B2 (priority 2005, dated 2017).

Assay [1] relates to Fusarium graminearum, Fusarium culmorum, or Fusarium avenaceum (mycotoxin production, DON). The note with it: in vivo.
Assay [2] relates to wheat scab (Fusarium graminearum, Fusarium culmorum, or Fusarium avenaceum). It counts as in vivo. The note with it: for Medicinal Benefit Control Value: relative to no treatment; for Medicinal Benefit (number of infected berries in 1000 berries): sprayed once at GSs 65 to 71, no treatment 203.

Where two headings read alike, the source gives them in different places.

For the compound `COC(=O)NC(=S)Nc1ccccc1NC(=S)NC(=O)OC` [Cercobin M, thiophanate-methyl], in assay [1], the “amount of mycotoxin production (DON concentration), result in words” value is recorded as “inhibited in a dose-dependent manner”. The figures for the “Medicinal Benefit Control Value” in assay [2] (250 g ai/ha), in assay [2] (375 g ai/ha) and in assay [2] (500 g ai/ha) were 6.4%, 7.4% and 11.3%, respectively. Besides, the “Medicinal Benefit (number of infected berries in 1000 berries)” value was 190 in assay [2] (250 g ai/ha), 218 in assay [2] (375 g ai/ha) and 180 in assay [2] (500 g ai/ha). The “medicinal benefit (number of infected berries in 1000 berries), result in words” value in assay [2] (250 to 500 g ai/ha (combination 500 + 120 g ai/ha), versus no treatment) is given as “almost no difference”.
